Where two headings read alike, the source gives them in different places. One block for each compound: values may come before it.
Assays:
[1] = system: Plasmodium falciparum blood stage parasites; assay: Growth assay over three life cycles (delayed death); type: cell-based; details: 0.2 µM; 48, 96, 144 h
Protocol: (§1) To determine the impact of (3i) on apicoplast biogenesis, parasites were treated for 48 h with 0.2 µM of (3i) or 0.2 µM of (2i) (a control of (3i) for which the active CCl3 was replaced by a methyl CH3 group) and compared to untreated parasites by immunofluorescence assay. […] In order to determine if the apicoplast is the main target of (3i), we performed a growth assay over three life cycles to assess a potential delayed death effect, one of the major signature for compounds affecting apicoplast. […] The second interpretation could be that, unlike chloramphenicol or doxycycline, which cause a delayed death phenotype on Plasmodium, (3i) could act like fosmidomycin or actinonin and cause a rapid death phenotype.
To observe a potential effect of delayed death of the molecule on the parasite, Plasmodium was maintained on three life cycles (48 h). […] Fluorescence from each well was measured with TECAN infinite M200 plate reader (excitation: 485 nm, emission: 538 nm and integration time: 1000 μs). […] A graph was obtained by performing the ration of the treated culture fluorescence intensity on the untreated culture fluorescence intensity (n = 3).

[2] = system: K1 chloroquine and pyrimethamine-resistant P. falciparum strain; assay: In vitro antiplasmodial evaluation (SYBR Green I); type: cell-based, Plasmodium falciparum; details: K1 strain, 72 h incubation, three independent experiments, read-out: EC50 PfK1 (µM) ± SD
Protocol: For all molecules, the selectivity index was calculated as following SI = CC50/EC50.
It was maintained in continuous culture, as described previously by Trager and Jensen. Cultures were maintained in fresh A+ human erythrocytes at 2.5% hematocrit in complete medium (RPMI 1640 with 25 mM HEPES, 25 mM NaHCO3, 10% of A+ human serum) at 37 °C under reduced O2 atmosphere (gas mixture 10% O2, 5% CO2, and 85% N2). Parasitemia was maintained daily between 1 and 3%. The P. falciparum drug susceptibility test was carried out by comparing quantities of DNA in treated and control cultures of parasite in human erythrocytes according to an SYBR Green I fluorescence-based method using a 96-well fluorescence plate reader. Compounds, previously dissolved in DMSO (final concentration less than 0.5% v/v), were incubated in a total assay volume of 200 μL (RPMI, 2% hematocrit and 0.4% parasitemia) for 72 h in a humidified atmosphere (10% O2 and 5% CO2) at 37 °C, in 96-well flat bottom plates. Duplicate assays were performed for each sample. After incubation, plates were frozen at […] for 24 h. Then, the frozen plates were thawed for 1 h at 37 °C. Fifteen µL of each sample were transferred to 96-well flat bottom non-sterile black plates (Greiner Bio-one, Kremsmünster, Austria), already containing 15 µL of the SYBR Green I lysis buffer (2X SYBR Green I, 20 mM Tris base pH 7.5, 20 mM EDTA, 0.008% w/v saponin, 0.08% w/v Triton X-100). […] Plates were incubated for 15 min at 37 °C and then read on a TECAN Infinite F-200 spectrophotometer with excitation and emission wavelengths at 485 and 535 nm, respectively.

P. falciparum apicoplast = assay: Immunofluorescence assay of apicoplast biogenesis on treated blood-stage parasites; type: cell-based, Plasmodium falciparum; details: 48 h, 0.2 µM
Protocol: as §1
Plasmodium falciparum blood stage parasites were maintained at 2% hematocrit in 1640 RPMI-HEPES, supplemented with 5% AlbuMAX II (GIBCO) and 0.25% gentamycin. Parasites were grown sealed Perspex chambers gassed with beta mix gas (1% O2, 5% CO2 and 94% N2) at 37 °C and maintained on 48-h cycles. Cultures were tightly synchronized at ring stage using sorbitol treatment (5% v/v) as previously described.
Prior to the treatment, parasites were synchronized using 5% sorbitol. After 48 h treatment ([…] or DMSO) parasites were fixed using 4% paraformaldehyde (PFA) and 0.0075% glutaraldehyde for 30 min at room temperature. […]

[3] = system: P. falciparum (NF135 strain) hepatic exoerythrocytic forms; assay: Liver stage development in infected primary human hepatocytes; type: cell-based, Plasmodium falciparum; details: 3i 0.9-30 µM, ATQ 25 nM; 6 or 12 days post-infection
Protocol: The effect of (3i) on the hepatic stage of P. falciparum was next studied in order to know if (3i) was active against another stage of P. falciparum cycle. Cryopreserved primary human hepatocytes were infected with 30,000 freshly extracted P. falciparum sporozoites and simultaneously treated with a dose range (0.9–30 µM) of (3i). Atovaquone (ATQ) was used as a positive parasite-killing control at 25 nM.
P. falciparum (NF135 strain) sporozoites were isolated by dissection of the salivary glands of infected A. stephensi 14–21 days after an infective blood meal (Department of medical microbiology, University Medical Centre, St Radboud, Nijmegen Netherland). All infected salivary glands were removed by hand dissection, crushed in a potter for sporozoites isolation, and filtrated through a 40 μm filter to remove mosquito debris (Cell Strainer, BD BioSciences, Franklin Lakes, NJ, USA). The sporozoites were counted using a disposable Glasstic microscope slide (KOVA, Garden Grove, CA, USA).
One day before hepatocyte thawing, 96-well plates were coated by a Corning®® collagen solution (50 µg/mL rat tail type I collagen in 0.02N acid acetic) over night at room temperature. The next day, the wells were washed twice by PBS solution. Cryopreserved primary human hepatocytes (LONZA, Basel, Swiss) were seeded in 96-well plates with a pre-determined seeding dose that gave a single dense layer of attached hepatocytes. Four days post-seeding, each plate well was infected with 30,000 freshly extracted Plasmodium falciparum sporozoites. […]
Hepatocyte cultures were fixed with 4% paraformaldehyde solution (PFA, Invitrogen) for 10 min. […] Images were analyzed and prepared with ImageJ software. Apicoplast morphology was observed and quantified by eye under a confocal microscope.
Upon immunostaining of parasites, the study plates were scanned using a CellInsight high-content screening platform equipped with the Studio HCS software (Thermo Fisher Scientific, Waltham, MA, USA). […] The number of host hepatocyte nuclei per well was counted by the system as a measure of toxicity of 3i towards the liver cells. […]

[4] = system: Pf3D7 (3D7 chloroquine-sensitive strain); details: Figure 2; cited from earlier work
HepG2 = details: Figure 2; cited from earlier work

EC50 [2]: > 16 µM
EC50 ([2]; Plasmodium falciparum, K1, 72 h): > 25 µM
SMILES: Cc1nc2ccccc2nc1Oc1ccc([N+](=O)[O-])cc1 [2i, 2-Methyl-3-(4-nitrophenoxy)quinoxaline]
Parasite growth over three life cycles (ratio treated/untreated) [1]: absence of effect
Effect on apicoplast biogenesis (immunofluorescence) (P. falciparum apicoplast): absence of effect

SMILES: O=C1C(O)=C([C@H]2CC[C@H](c3ccc(Cl)cc3)CC2)C(=O)c2ccccc21 [ATQ, Atovaquone, reference compound]
Effect on exoerythrocytic forms (EEF or schizont) size and numbers [3]: completely clear all parasites from the culture

SMILES: Brc1ccc(Nc2nc3ccccc3nc2Nc2ccc(Br)cc2)cc1 [MMV007224]
EC50 [4]: 1.06 µM
CC50 (HepG2): 5.1 µM

From article PMC8400257, “2-Phenoxy-3-Trichloromethylquinoxalines Are Antiplasmodial Derivatives with Activity against the Apicoplast of Plasmodium falciparum” (Pharmaceuticals, 2021)
